One assay has as its system NCI-H2228. The experiment in a line: Antiproliferative activity against human NCI-H2228 cells assessed as reduction in cell viability incubated for 72 hrs by MTT assay. Format: functional, cell-based. The following applies: NCI-H2228, 72 h. In general terms: Formazan colour is commonly taken as a measure of viable cells.
The next assay relates to KARPAS-299. Put plainly: Antiproliferative activity against human KARPAS299 cells assessed as reduction in cell viability incubated for 72 hrs by MTT assay. The assay is classed as functional, cell-based. The following applies: KARPAS-299, 72 h.
In assay [1] the test system is A549. The experiment in a line: cells. The following applies: Homo sapiens, A549, 72 h.
In another assay the test system is HT-29. The experiment in a line: cells. To be noted: Homo sapiens, HT-29, 72 h.
Assay [2] relates to A549. Put plainly: Antiproliferative activity against human A549 cells harbouring […] mutant assessed as reduction in cell viability incubated for 72 hrs by MTT assay. Format: functional, cell-based. To be noted: A549, 72 h.
Another assay concerns HCC78. The experiment in a line: Antiproliferative activity against human HCC78 cells assessed as reduction in cell viability incubated for 72 hrs by MTT assay. To be noted: HCC78, 72 h. Format: functional, cell-based.
The target of assay [3] is Hepatocyte growth factor receptor (Homo sapiens, UniProt P08581). The experiment in a line: Inhibition of recombinant human N-terminal GST-tagged MET (956 to 1390 residues) cytoplasmic domain expressed in baculovirus expression system using Srctide as substrate incubated for 1 hr by mobility shift assay.

Experimental findings from ChEMBL document CHEMBL4396963, “An exploration of solvent-front region high affinity moiety leading to novel potent ALK & ROS1 dual inhibitors with mutant-combating effects” (Bioorg Med Chem, 2019) are described below.

Structures are written as SMILES. pIC50: −log10 of the molar value.

Sequence of Hepatocyte growth factor receptor (P08581 whole entry, the tested form may be a part): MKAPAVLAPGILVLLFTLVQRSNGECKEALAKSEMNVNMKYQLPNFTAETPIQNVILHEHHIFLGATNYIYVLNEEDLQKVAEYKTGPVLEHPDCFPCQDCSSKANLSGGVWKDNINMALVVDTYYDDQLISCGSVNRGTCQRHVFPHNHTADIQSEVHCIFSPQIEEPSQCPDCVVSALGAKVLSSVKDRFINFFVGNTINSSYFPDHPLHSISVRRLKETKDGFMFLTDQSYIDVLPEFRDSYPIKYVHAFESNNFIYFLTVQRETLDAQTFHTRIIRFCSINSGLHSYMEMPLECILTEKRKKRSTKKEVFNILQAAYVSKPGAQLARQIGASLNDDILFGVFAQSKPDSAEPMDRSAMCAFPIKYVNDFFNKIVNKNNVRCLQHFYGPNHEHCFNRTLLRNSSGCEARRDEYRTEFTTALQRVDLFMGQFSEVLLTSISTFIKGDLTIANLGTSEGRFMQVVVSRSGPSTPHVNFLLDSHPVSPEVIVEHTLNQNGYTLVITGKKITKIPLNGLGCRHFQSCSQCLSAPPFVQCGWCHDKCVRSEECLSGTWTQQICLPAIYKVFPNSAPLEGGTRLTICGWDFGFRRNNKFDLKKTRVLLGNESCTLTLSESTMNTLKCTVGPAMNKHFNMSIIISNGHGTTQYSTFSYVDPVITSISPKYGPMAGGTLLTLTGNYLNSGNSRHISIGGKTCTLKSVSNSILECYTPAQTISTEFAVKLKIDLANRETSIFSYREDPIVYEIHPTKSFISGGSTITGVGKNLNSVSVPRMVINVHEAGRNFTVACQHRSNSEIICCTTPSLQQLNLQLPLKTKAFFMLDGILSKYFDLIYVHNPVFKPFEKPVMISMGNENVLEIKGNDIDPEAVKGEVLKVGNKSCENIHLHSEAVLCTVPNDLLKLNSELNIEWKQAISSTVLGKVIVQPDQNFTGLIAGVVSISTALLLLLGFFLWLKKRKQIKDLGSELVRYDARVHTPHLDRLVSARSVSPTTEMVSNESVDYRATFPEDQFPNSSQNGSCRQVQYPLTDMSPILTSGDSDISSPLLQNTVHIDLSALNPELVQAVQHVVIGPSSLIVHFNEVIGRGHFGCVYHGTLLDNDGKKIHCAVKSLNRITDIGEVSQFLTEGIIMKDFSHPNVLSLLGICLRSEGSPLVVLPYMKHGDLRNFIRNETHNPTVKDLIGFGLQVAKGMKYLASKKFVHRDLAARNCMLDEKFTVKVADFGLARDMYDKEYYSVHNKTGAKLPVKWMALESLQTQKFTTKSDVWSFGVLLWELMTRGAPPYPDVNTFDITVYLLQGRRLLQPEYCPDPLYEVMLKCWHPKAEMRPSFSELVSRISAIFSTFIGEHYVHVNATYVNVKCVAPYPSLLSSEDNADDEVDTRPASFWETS
Description for HT-29: Antiproliferative activity against human HT-29 cells assessed as reduction in cell viability incubated for 72 hrs by MTT assay

For the compound `CCOC(=O)C1=C(Nc2ccc(Nc3ncc(Cl)c(Nc4ccccc4NC(C)=O)n3)c(OC)c2)CCC1`, the pIC50 in the assay on NCI-H2228 is 5.60; in the assay on KARPAS-299 it was 5.30; in the assay on A549 [1], less than 5.00; in the assay on HT-29, less than 5.00; in the assay with A549 [2], 5.50; in the assay with HCC78, 6.04.
For the compound `COc1cc(N2CCCCC2=O)ccc1Nc1ncc(Cl)c(Nc2ccccc2NC(C)=O)n1`, the pIC50 with NCI-H2228 was 6.28; in the assay with KARPAS-299 it was 6.51; in the assay on A549 [1], less than 5.00; in the assay with HT-29, less than 5.00; with A549 [2] it was 5.97; in the assay with HCC78 it was 6.18.
On to `COc1cc(NC(=O)N2CCC(C)CC2)ccc1Nc1ncc(Cl)c(Nc2ccccc2NC(C)=O)n1`, for which the pIC50 is 6.21 with NCI-H2228; 6.77 in the assay with KARPAS-299; less than 5.00 with A549 [1]; 5.49 with HT-29; 5.90 in the assay with A549 [2]; 6.28 in the assay with HCC78.
Regarding `COc1cc(NC(=O)NC2CC2)ccc1Nc1ncc(Cl)c(Nc2ccccc2NC(C)=O)n1`, the pIC50 was 6.09 with NCI-H2228; 6.05 with KARPAS-299; less than 5.00 with A549 [1]; less than 5.00 in the assay with HT-29; 6.15 in the assay with A549 [2]; 6.06 with HCC78.
Regarding `COc1cc(NC(=O)NC2CCN(C(=O)OC(C)(C)C)CC2)ccc1Nc1ncc(Cl)c(Nc2ccccc2NC(C)=O)n1`, the pIC50 is 6.08 in the assay with NCI-H2228; 5.99 in the assay on KARPAS-299; less than 5.00 in the assay on A549 [1]; 5.26 in the assay on HT-29; 5.74 in the assay with A549 [2]; 6.77 in the assay with HCC78.
Take `COc1cc(NC(=O)N[C@H]2CC[C@H](O)CC2)ccc1Nc1ncc(Cl)c(Nc2ccccc2NC(C)=O)n1`: the pIC50 was 6.26 with NCI-H2228; 6.47 with KARPAS-299; 5.64 in the assay on A549 [1]; less than 5.00 in the assay on HT-29; 5.91 in the assay on A549 [2]; 7.02 in the assay with HCC78.
Turning to `CCOC(=O)[C@@H]1CCCN(C(=O)Nc2ccc(Nc3ncc(Cl)c(Nc4ccccc4NC(C)=O)n3)c(OC)c2)C1`, the pIC50 in the assay on NCI-H2228 is 6.22; with KARPAS-299, 6.23; with A549 [1], 5.59; in the assay with HT-29, less than 5.00; with A549 [2], 5.81; with HCC78 it was 6.17.
In the case of `COc1cc(NC(=O)NCCCN2CCCC2)ccc1Nc1ncc(Cl)c(Nc2ccccc2NC(C)=O)n1`, the pIC50 with NCI-H2228 was 6.14; with KARPAS-299, 6.54; with A549 [1], 5.53; in the assay on HT-29 it was less than 5.00; in the assay with A549 [2], 5.99; in the assay on HCC78, 6.96.
`COc1cc(NC(=O)N2CCN(C)CC2)ccc1Nc1ncc(Cl)c(Nc2ccccc2NC(C)=O)n1`: the pIC50 was 6.77 in the assay on NCI-H2228; 7.31 in the assay on KARPAS-299; 5.34 in the assay on A549 [1]; less than 5.00 in the assay with HT-29; 6.36 in the assay with A549 [2]; 6.41 with HCC78.
For the compound `Cc1cc(Nc2ncc(Cl)c(Nc3ccccc3S(=O)(=O)C(C)C)n2)c(OC(C)C)cc1C1CCNCC1` [CERITINIB], the pIC50 in the assay with NCI-H2228 was 7.35; with KARPAS-299, 7.43; in the assay with A549 [1], 5.84; with HT-29, 5.99; in the assay with A549 [2], 6.29; in the assay with HCC78 it was 7.41. In addition, in assay [3], the pIC50 is 6.57.
Take `COc1cc(NC(=O)NCCCN2CCOCC2)ccc1Nc1ncc(Cl)c(Nc2ccccc2NC(C)=O)n1`: the negative-log IC50 (pIC50) in the assay with NCI-H2228 was 6.11; in the assay on KARPAS-299 it was 6.31; with A549 [1], 5.51; in the assay on HT-29, less than 5.00; in the assay with A549 [2] it was 5.96; in the assay with HCC78 it was 6.57.
Consider `COC(=O)C1=C(Nc2ccc(Nc3ncc(Cl)c(Nc4ccccc4NC(C)=O)n3)c(OC)c2)CCC1`, for which the pIC50 with NCI-H2228 was 5.53; with KARPAS-299, 5.37; in the assay on A549 [1], less than 5.00; in the assay on HT-29, less than 5.00; in the assay on A549 [2] it was 5.74; in the assay on HCC78, 6.06.
Regarding `COc1cc(NC(=O)N[C@H]2CC[C@H](C)CC2)ccc1Nc1ncc(Cl)c(Nc2ccccc2NC(C)=O)n1`, the pIC50 is 6.28 with NCI-H2228; 6.08 in the assay on KARPAS-299; 5.39 in the assay on A549 [1]; less than 5.00 in the assay on HT-29; 5.62 in the assay with A549 [2]; 6.39 with HCC78.
Take `COc1cc(N2CCC2=O)ccc1Nc1ncc(Cl)c(Nc2ccccc2NC(C)=O)n1`: the negative logarithm of the IC50 (pIC50) with NCI-H2228 was 6.13; in the assay on KARPAS-299, 6.18; in the assay with A549 [1], 5.67; with HT-29, 5.25; in the assay with A549 [2] it was 6.19; with HCC78, 6.64.
As for `COc1cc(NC2=CC(=O)CCC2)ccc1Nc1ncc(Cl)c(Nc2ccccc2NC(C)=O)n1`, the pIC50 is 5.79 with NCI-H2228; 5.99 in the assay on KARPAS-299; 5.28 in the assay with A549 [1]; less than 5.00 in the assay with HT-29; 5.95 in the assay with A549 [2]; 6.64 in the assay with HCC78.
Take `COc1cc(NC(=O)N2CC(O)C2)ccc1Nc1ncc(Cl)c(Nc2ccccc2NC(C)=O)n1`: the pIC50 with NCI-H2228 is 6.14; in the assay on KARPAS-299, 6.57; in the assay with A549 [1] it was less than 5.00; with HT-29 it was 5.38; in the assay on A549 [2], 5.97; in the assay with HCC78 it was 6.31.
In the case of `COc1cc(NC2CCCCC2)ccc1Nc1ncc(Cl)c(Nc2ccccc2NC(C)=O)n1`, the pIC50 is 6.24 with NCI-H2228; 6.06 in the assay on KARPAS-299; less than 5.00 with A549 [1]; 5.33 with HT-29; 5.66 with A549 [2]; 6.41 with HCC78.
As for `CCOC(=O)C1CCN(C(=O)Nc2ccc(Nc3ncc(Cl)c(Nc4ccccc4NC(C)=O)n3)c(OC)c2)CC1`, the pIC50 in the assay with NCI-H2228 is 5.92; with KARPAS-299, 6.35; with A549 [1] it was 5.76; in the assay with HT-29, less than 5.00; with A549 [2], 6.03; in the assay on HCC78, 6.06.
`COc1cc(NC(=O)N2CCSCC2)ccc1Nc1ncc(Cl)c(Nc2ccccc2NC(C)=O)n1`: the pIC50 in the assay with NCI-H2228 is 6.24; with KARPAS-299, 6.68; in the assay with A549 [1] it was less than 5.00; in the assay on HT-29, less than 5.00; with A549 [2], 5.63; with HCC78, 6.77.
As for `COc1cc(NC(=O)N2CCC(C(=O)O)CC2)ccc1Nc1ncc(Cl)c(Nc2ccccc2NC(C)=O)n1`, the pIC50 with NCI-H2228 was 5.73; in the assay with KARPAS-299, 5.97; in the assay on A549 [1], less than 5.00; in the assay on HT-29 it was 5.44; in the assay with A549 [2], 6.01; in the assay with HCC78 it was 6.41.
`COc1cc(NC(=O)N2CCN(C(=O)OC(C)(C)C)CC2)ccc1Nc1ncc(Cl)c(Nc2ccccc2NC(C)=O)n1`: the pIC50 in the assay with NCI-H2228 is 6.03; in the assay with KARPAS-299, 5.95; in the assay on A549 [1], 5.64; in the assay on HT-29 it was 5.51; in the assay with A549 [2] it was 5.93; with HCC78 it was 6.64.
For `COc1cc(NC(=O)N2CCC2)ccc1Nc1ncc(Cl)c(Nc2ccccc2NC(C)=O)n1`, the pIC50 was 6.47 in the assay on NCI-H2228; 6.41 with KARPAS-299; 5.61 in the assay on A549 [1]; 5.17 in the assay with HT-29; 5.94 in the assay with A549 [2]; 6.25 in the assay with HCC78.
Consider `COc1cc(NC(=O)N2CCCCC2)ccc1Nc1ncc(Cl)c(Nc2ccccc2NC(C)=O)n1`, for which the pIC50 in the assay with NCI-H2228 was 6.19; in the assay with KARPAS-299 it was 6.62; in the assay with A549 [1], less than 5.00; with HT-29, less than 5.00; in the assay with A549 [2] it was 6.01; with HCC78, 6.68.
`COc1cc(NC(=O)NC2CCCC2)ccc1Nc1ncc(Cl)c(Nc2ccccc2NC(C)=O)n1`: the pIC50 is 6.33 in the assay on NCI-H2228; 6.08 in the assay on KARPAS-299; less than 5.00 with A549 [1]; 5.18 in the assay on HT-29; 6.13 in the assay with A549 [2]; 6.21 in the assay on HCC78.
In the case of `COc1cc(NC(=O)NN2CCOCC2)ccc1Nc1ncc(Cl)c(Nc2ccccc2NC(C)=O)n1`, the pIC50 in the assay with NCI-H2228 was 6.64; with KARPAS-299, 6.47; with A549 [1], less than 5.00; in the assay on HT-29, 5.65; with A549 [2], 5.83; with HCC78, 6.51.
With `COc1cc(NC2CCCC2)ccc1Nc1ncc(Cl)c(Nc2ccccc2NC(C)=O)n1`, the pIC50 in the assay with NCI-H2228 was 6.01; in the assay with KARPAS-299, 5.98; in the assay with A549 [1], less than 5.00; in the assay on HT-29 it was less than 5.00; in the assay with A549 [2], 5.99; in the assay on HCC78 it was 6.17.
In the case of `COc1cc(NC(=O)C2CCN(C(=O)OC(C)(C)C)CC2)ccc1Nc1ncc(Cl)c(Nc2ccccc2NC(C)=O)n1`, the pIC50 with NCI-H2228 was 5.76; in the assay on KARPAS-299 it was 6.29; with A549 [1], 5.27; in the assay on HT-29, less than 5.00; with A549 [2], 5.86; in the assay with HCC78, 6.21.
Regarding `COc1cc(N2C(=O)CCC2=O)ccc1Nc1ncc(Cl)c(Nc2ccccc2NC(C)=O)n1`, the pIC50 in the assay on NCI-H2228 is 6.20; in the assay on KARPAS-299, 6.68; in the assay with A549 [1] it was less than 5.00; in the assay on HT-29, less than 5.00; in the assay on A549 [2], 6.21; with HCC78 it was 6.41.
On to `COc1cc(NC(=O)NC2CCCCC2)ccc1Nc1ncc(Cl)c(Nc2ccccc2NC(C)=O)n1`, for which the pIC50 in the assay with NCI-H2228 is 6.34; with KARPAS-299 it was 6.14; in the assay on A549 [1], less than 5.00; in the assay on HT-29, less than 5.00; in the assay on A549 [2] it was 5.81; in the assay on HCC78 it was 6.29.

As usually defined, the pIC50 is the IC50 on a negative log10 scale, so that one unit is a factor of ten.
